From article PMC11763264, “Antibacterial and Antifungal Activities of Linear and Cyclic Peptides Containing Arginine, Tryptophan, and Diphenylalanine” (Antibiotics, 2025)
Converted amounts (≈) assume the structure as drawn. Non-standard residues stand in square brackets, D forms with d. Residues, ends and D or L forms follow the SMILES beside them. Dip = N[C@H](C(=O)O)C(c1ccccc1)c1ccccc1

How the values were obtained:
Experiment in all cases: microbe, parasite or virus in culture
C. albicans (ATCC 60193) = assay type: cell-based, Candida albicans
Method: (§1) The antifungal activity of all ten synthesized linear and cyclic peptides was evaluated against C. albicans (ATCC 60193), C. parapsilosis (ATCC 22019), and A. fumigatus (AF-293). Fluconazole and amphotericin B were used as positive controls for this study. The MIC was determined at concentrations in wells with no visible fungal growth.
(§2) In this study, C. albicans and C. parapsilosis were cultured on Yeast Peptone Dextrose (YPD) agar containing 1% w/v yeast extract, 2% w/v peptone, 2% w/v D-glucose, and 1.5% agar. A single colony from the agar was selected and cultured in Tryptone soy broth supplemented with 0.1% D-glucose, then incubated for 24 h at 37 °C. The cells were washed twice with PBS by centrifugation at 2000 RPM for 5 min. The pellet was resuspended in 5 mL of PBS, diluted in RPMI 1640 with L-glutamine, supplemented with 2% D-glucose, and the pH adjusted using HEPES buffer. The suspension was then incubated for 50 min at 35 °C to achieve a final cell concentration of 10^6 cells/mL.
(§3) Peptide concentrations of 50, 25, 12.5, 6.25, and 3.1 μg/mL were tested in triplicate and repeated twice. Each well of a 96-well plate was inoculated with the prepared inoculum suspension, which was diluted with RPMI media to a final volume of 200 μL per well. The control well received the same inoculum without any compound. The plates were incubated for 24 h at 37 °C. Fungal and microbial growth were visually observed in the control wells, and the minimum inhibitory concentration (MIC) was determined as the lowest concentration at which no growth was detected in the wells. Amphotericin B was used as a standard antifungal drug.

[1] = system: C. parapsilosis (ATCC 22019); assay type: cell-based, Candida parapsilosis
Method: as §1, §2, §3

A. fumigatus (Af-293) = assay type: cell-based, Aspergillus fumigatus; details: RPMI 1640 with 2% D-glucose, HEPES, 10^6 cells/mL, 24 and 48 h at 35 °C, no visible growth, triplicates, repeated twice
Method: as §1
A. fumigatus (Af-293) was cultured on Sabouraud dextrose agar (SDA) (Lot #3431660, Oxoid) for 48–72 h at 35 °C to obtain fresh and mature colonies which reached the proper sporulation then used to prepare the inoculum. The colonies were covered with Phosphate-Buffered Saline (PBS) containing 0.025% Tween-20, scraped from the plate, and carefully collected into a sterile tube. The suspension was centrifuged at 3000 RPM for 5 min after the separation between conidia and hyphae. The supernatant was discarded, and the pellet was resuspended in 5 mL of PBS.
Peptide concentrations of 50, 25, 12.5, 6.25, and 3.1 μg/mL were tested in triplicate. Each well of a 96-well plate was inoculated with the prepared inoculum suspension, which was diluted with RPMI 1640 medium containing L-glutamine, supplemented with 2% D-glucose, and the pH adjusted using HEPES buffer. The plates were incubated for 50 min at 35 °C to achieve a final cell concentration of 10^6 cells/mL. The control wells contained the same inoculum without any compound. The plates were then incubated for 24 and 48 h at 35 °C. Fungal growth was visualized, and the minimum inhibitory concentration (MIC) was determined as the lowest peptide concentration, where no growth was observed.

MRSA (ATCC BAA-1556) = assay type: cell-based, Methicillin-Resistant Staphylococcus aureus; details: ATCC BAA-1556, 24 h
Method: (§4) The antibacterial activity of all ten synthesized linear and cyclic peptides was evaluated against MRSA (ATCC BAA-1556), S. aureus (ATCC 29213), E. faecium (ATCC 700221), S. pneumoniae (ATCC 51938), E. faecalis (ATCC 29212), B. subtilis (ATCC-6633), K. pneumoniae (ATCC BAA-1705), P. aeruginosa (ATCC 27883), and E. coli (ATCC 25922). Meropenem and daptomycin were used as positive controls for this study. Certain peptides are marked as “NT” (not tested) against specific bacterial strains based on initial screening data. […] The MIC was determined by micro-broth dilution protocol, where the minimal concentrations were determined to be in wells with no visible bacterial growth.
(§5) All bacterial experiments were carried out in a laminar flow hood (Labconco, Kansas City, MO, USA). The bacterial strains were cultured following the guidelines set by the Clinical Laboratory Standards Institute (CLSI). Antibacterial assays were performed using a standard microtiter dilution method as described in previous studies. The minimum inhibitory concentration (MIC) refers to the lowest peptide concentration that inhibits bacterial growth in wells with no visible bacterial growth. MIC was determined by micro-broth dilution. Bacteria were cultured overnight in 6 mL of Luria Broth (LB). A stock solution of the peptide was prepared in water and DMSO, and a test compound solution with a concentration of 256 µg/mL was made in LB. Meropenem, with a solubility of 8 mg/mL, was prepared as a stock solution at 4 mg/500 µL. An aliquot of the overnight bacteria culture was diluted in normal saline (NS, 1 mL) until achieving a 0.5 McFarland turbidity (1.5 × 10^8 bacterial cell CFU/mL). A 0.5 McFarland compared solution (60 µL) was added to Mueller Hinton Broth (MH) 8940 µL to generate a 1/150 dilution. A 200 µL test compound solution was added to the first well of a 96-well plate, and the remaining wells (2–12) were filled with 100 µL of MH media using a multi-channel pipette from a sterile reservoir. A concentration of […] of the tested peptides was prepared from a stock solution of the samples for testing in Muller−Hinton broth MH media. Peptides stock solution was dissolved in 5% DMSO in water, and the final concentration of DMSO in the first well of assay plate was 2.5% DMSO/H2O and diluted across the assay plate.
(§6) A 100 µL sample from well 1 was pipetted into well 2, and the solution was mixed thoroughly by pipetting up and down. Next, 100 µL was transferred from well 2 to well 3, followed by thorough mixing. This 2-fold serial dilution process continued through well 11, with no additions made to well 12. The final 100 µL from well 11 was discarded. After completing the serial dilution, each well (1–12) contained 100 µL of solution. The bacterial culture in MH media was vortexed and transferred to a sterile reservoir, from which 100 µL was added to each well using a 12-channel pipette. (Note: The dilutions were further diluted upon adding the bacterial solution; for example, the concentration in well 1 started at […] after the addition of the bacterial culture.) The plates were incubated overnight at 37 °C for 24 h. All experiments were performed in triplicate and repeated twice, with controls consisting of bacteria in MH media and positive controls of daptomycin or meropenem.

S. aureus (ATCC 29213) = assay type: cell-based, Staphylococcus aureus; details: ATCC 29213, 24 h
Method: as §4, §5, §6

E. faecium (ATCC 700221) = assay type: cell-based, Enterococcus faecium; details: ATCC 700221, 24 h
Method: as §4, §5, §6

[2] = system: S. pneumoniae (ATCC 51938); assay type: cell-based, Streptococcus pneumoniae; details: ATCC 51938, 24 h
Method: as §4, §5, §6

E. faecalis (ATCC 29212) = assay type: cell-based, Enterococcus faecalis; details: ATCC 29212, 24 h
Method: as §4, §5, §6

B. subtilis (ATCC-6633) = assay type: cell-based, Bacillus subtilis; details: ATCC-6633, 24 h
Method: as §4, §5, §6

[3] = system: K. pneumoniae (ATCC BAA-1705); assay type: cell-based, Klebsiella pneumoniae; details: ATCC BAA-1705, 24 h
Method: as §4, §5, §6

[4] = system: P. aeruginosa (ATCC 27883); assay type: cell-based, Pseudomonas aeruginosa; details: ATCC 27883, 24 h
Method: as §4, §5, §6

E. coli (ATCC 25922) = assay type: cell-based, Escherichia coli; details: ATCC 25922, 24 h
Method: as §4, §5, §6

[5] = Candida albicans, ATCC60193, RPMI 1640 with 2% D-glucose, HEPES, 10^6 cells/mL, 24 h at 37 °C, no visible growth, triplicates, repeated twice
[6] = Lodderomyces parapsilosis, ATCC22019, RPMI 1640 with 2% D-glucose, HEPES, 10^6 cells/mL, 24 h at 37 °C, no visible growth, triplicates, repeated twice

Structure (SMILES) | MIC (C. albicans (ATCC 60193); [5]) [µM] | MIC [1, 6] [µM] | MIC (A. fumigatus (Af-293); Aspergillus fumigatus) [µM] | MIC (MRSA (ATCC BAA-1556)) [µM] | MIC (S. aureus (ATCC 29213)) [µM] | MIC (E. faecium (ATCC 700221)) [µM] | MIC [2] [µM] | MIC (E. faecalis (ATCC 29212)) [µM] | MIC (B. subtilis (ATCC-6633)) [µM] | MIC (A. fumigatus (Af-293)) [µM] | MIC [3] [µM] | MIC [4] [µM] | MIC (E. coli (ATCC 25922)) [µM] | MIC (C. albicans (ATCC 60193); ATCC 60193, 24 h) [µM] | MIC ([1]; ATCC 22019, 24 h) [µM]
C[C@@H]1[C@H](O)[C@@H](C)/C=C/C=C/C=C/C=C/C=C/C=C/C=C/[C@H](O[C@@H]2O[C@H](C)[C@@H](O)[C@H](N)[C@@H]2O)C[C@@H]2O[C@](O)(C[C@@H](O)C[C@@H](O)[C@H](O)CC[C@@H](O)C[C@@H](O)CC(=O)O[C@H]1C)C[C@H](O)[C@H]2C(=O)O [Amphotericin B, reference compound] | 0.42 (≈ 0.388 µg/mL) | 0.42 (≈ 0.388 µg/mL) | 0.84 (≈ 0.776 µg/mL) |  |  |  |  |  |  |  |  |  |  |  | 
CCCCCCCCCC(=O)N[C@@H](Cc1c[nH]c2ccccc12)C(=O)N[C@H](CC(N)=O)C(=O)N[C@@H](CC(=O)O)C(=O)N[C@@H]1C(=O)NCC(=O)N[C@@H](CCCN)C(=O)N[C@@H](CC(=O)O)C(=O)N[C@H](C)C(=O)N[C@@H](CC(=O)O)C(=O)NCC(=O)N[C@H](CO)C(=O)N[C@@H]([C@H](C)CC(=O)O)C(=O)N[C@@H](CC(=O)c2ccccc2N)C(=O)O[C@@H]1C [Daptomycin, reference compound] |  |  |  | 1.2 (≈ 1.94 µg/mL) | 0.62 (≈ 1 µg/mL) | 1.2 (≈ 1.94 µg/mL) | 4.9 (≈ 7.94 µg/mL) | 9.87 (≈ 16 µg/mL) | 0.3 (≈ 0.486 µg/mL) |  |  |  |  |  | 
OC(Cn1cncn1)(Cn1cncn1)c1ccc(F)cc1F [Fluconazole, reference compound] | 4.9 (≈ 1.5 µg/mL) | 3.3 (≈ 1.01 µg/mL) | > 209 |  |  |  |  |  |  | >209 |  |  |  |  | 
N=C(N)NCCC[C@@H]1NC(=O)[C@H](Cc2c[nH]c3ccccc23)NC(=O)[C@H](CCCNC(=N)N)NC(=O)[C@H](Cc2c[nH]c3ccccc23)NC(=O)[C@H](CCCNC(=N)N)NC(=O)[C@H](C(c2ccccc2)c2ccccc2)NC(=O)[C@H](CCCNC(=N)N)NC(=O)[C@H](C(c2ccccc2)c2ccccc2)NC(=O)[C@H](CCCNC(=N)N)NC(=O)[C@H](Cc2c[nH]c3ccccc23)NC1=O [[(DipR)2(WR)3]] (cyclo([Dip]R[Dip]RWRWRWR)) |  |  |  | 3.1 (≈ 5.54 µg/mL) |  |  |  |  |  | 1.7 (≈ 3.04 µg/mL) | 12.5 (≈ 22.3 µg/mL) | 25 (≈ 44.7 µg/mL) | 12.5 (≈ 22.3 µg/mL) | 7.0 (≈ 12.5 µg/mL) | 7.0 (≈ 12.5 µg/mL)
N=C(N)NCCC[C@@H]1NC(=O)[C@H](Cc2c[nH]c3ccccc23)NC(=O)[C@H](CCCNC(=N)N)NC(=O)[C@H](C(c2ccccc2)c2ccccc2)NC(=O)[C@H](CCCNC(=N)N)NC(=O)[C@H](C(c2ccccc2)c2ccccc2)NC(=O)[C@H](CCCNC(=N)N)NC(=O)[C@H](C(c2ccccc2)c2ccccc2)NC(=O)[C@H](CCCNC(=N)N)NC(=O)[C@H](Cc2c[nH]c3ccccc23)NC1=O [[(DipR)3(WR)2]] (cyclo([Dip]R[Dip]R[Dip]RWRWR)) |  |  |  | 3.1 (≈ 5.65 µg/mL) |  |  |  |  |  | 1.7 (≈ 3.1 µg/mL) | 12.5 (≈ 22.8 µg/mL) | 25 (≈ 45.6 µg/mL) | 12.5 (≈ 22.8 µg/mL) | 6.8 (≈ 12.4 µg/mL) | 6.8 (≈ 12.4 µg/mL)
N=C(N)NCCC[C@@H]1NC(=O)[C@H](Cc2c[nH]c3ccccc23)NC(=O)[C@H](CCCNC(=N)N)NC(=O)[C@H](C(c2ccccc2)c2ccccc2)NC(=O)[C@H](CCCNC(=N)N)NC(=O)[C@H](C(c2ccccc2)c2ccccc2)NC(=O)[C@H](CCCNC(=N)N)NC(=O)[C@H](C(c2ccccc2)c2ccccc2)NC(=O)[C@H](CCCNC(=N)N)NC(=O)[C@H](C(c2ccccc2)c2ccccc2)NC1=O [[(DipR)4(WR)]] (cyclo([Dip]R[Dip]R[Dip]R[Dip]RWR)) |  |  |  | 3.1 (≈ 5.77 µg/mL) |  |  |  |  |  | 1.7 (≈ 3.16 µg/mL) | 25 (≈ 46.5 µg/mL) | 25 (≈ 46.5 µg/mL) | 12.5 (≈ 23.3 µg/mL) | 6.7 (≈ 12.5 µg/mL) | 6.7 (≈ 12.5 µg/mL)
N=C(N)NCCC[C@@H]1NC(=O)[C@H](Cc2c[nH]c3ccccc23)NC(=O)[C@H](CCCNC(=N)N)NC(=O)[C@H](Cc2c[nH]c3ccccc23)NC(=O)[C@H](CCCNC(=N)N)NC(=O)[C@H](C(c2ccccc2)c2ccccc2)NC(=O)[C@H](CCCNC(=N)N)NC(=O)[C@H](Cc2c[nH]c3ccccc23)NC(=O)[C@H](CCCNC(=N)N)NC(=O)[C@H](Cc2c[nH]c3ccccc23)NC1=O [[(DipR)(WR)4]] (cyclo([Dip]RWRWRWRWR)) |  |  |  | 3.1 (≈ 5.42 µg/mL) |  |  |  |  |  | 1.8 (≈ 3.15 µg/mL) | 12.5 (≈ 21.9 µg/mL) | 25 (≈ 43.7 µg/mL) | 12.5 (≈ 21.9 µg/mL) | 14.3 (≈ 25 µg/mL) | 7.1 (≈ 12.4 µg/mL)
